One data set concerns the target T1, UGT1A1 (Homo sapiens, UniProt P22309).
T1 construct: tissue BioreclamationIVT (Baltimore, Md.); host or cells: pooled human liver microsomes, 150 donors
T1 sequence (P22309 26-533): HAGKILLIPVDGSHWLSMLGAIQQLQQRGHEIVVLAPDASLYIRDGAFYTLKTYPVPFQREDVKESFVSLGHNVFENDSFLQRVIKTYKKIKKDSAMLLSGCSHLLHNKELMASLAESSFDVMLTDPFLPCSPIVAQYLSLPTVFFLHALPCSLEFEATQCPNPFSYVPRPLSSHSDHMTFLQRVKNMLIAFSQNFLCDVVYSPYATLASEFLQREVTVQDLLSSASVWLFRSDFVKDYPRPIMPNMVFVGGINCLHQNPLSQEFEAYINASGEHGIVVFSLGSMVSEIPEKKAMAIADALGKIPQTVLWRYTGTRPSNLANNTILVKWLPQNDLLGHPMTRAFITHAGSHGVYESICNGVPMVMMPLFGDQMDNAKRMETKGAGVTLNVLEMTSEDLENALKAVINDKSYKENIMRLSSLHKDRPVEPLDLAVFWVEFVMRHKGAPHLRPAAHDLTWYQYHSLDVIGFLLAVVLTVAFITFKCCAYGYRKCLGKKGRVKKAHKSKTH
Kind of data set: Ki determination in pooled human liver microsomes, β-estradiol 3-glucuronidation (Example 5). The class given is in vitro ADME. Here is the method:
(§1) The objective of this study was to evaluate in vitro the Ki of tucatinib of the following human hepatic cytochrome P450 (CYP) enzymes (CYP2C8, CYP2C9, and CYP3A4) and UGT1A1. […] Pooled human liver microsomes (HLM) from 150 individuals (79 males and 71 females) were obtained from BioreclamationIVT (Baltimore, Md.) and stored at approximately −70° C. The microsomes were characterized by the supplier for total protein and selected cytochrome P450 activities. […] The final organic solvent contribution was ≤1%. Incubations were terminated by the addition of chilled acetonitrile containing a stable isotope-labeled internal standard. […] Samples were analyzed by liquid chromatography with tandem mass spectrometry (LC-MS/MS). Analyte concentrations were quantified by LC-MS/MS and interpolated from standard curves of authentic analyte. […] Activities were calculated based on analyte concentration, incubation time, and protein concentration. Enzymatic activity (pmol/minute/mg protein) was expressed as the formation of the analyte per final protein concentration per incubation time. Activity remaining was expressed as the enzymatic activity at each concentration point of the test article normalized by the solvent control mean activity. […]
(In general: Liver microsomes are a subcellular fraction often used to study metabolism.)

A further data set deals with T2, CYP2C8 (Homo sapiens, UniProt P10632).
T2 sequence (P10632 1-490): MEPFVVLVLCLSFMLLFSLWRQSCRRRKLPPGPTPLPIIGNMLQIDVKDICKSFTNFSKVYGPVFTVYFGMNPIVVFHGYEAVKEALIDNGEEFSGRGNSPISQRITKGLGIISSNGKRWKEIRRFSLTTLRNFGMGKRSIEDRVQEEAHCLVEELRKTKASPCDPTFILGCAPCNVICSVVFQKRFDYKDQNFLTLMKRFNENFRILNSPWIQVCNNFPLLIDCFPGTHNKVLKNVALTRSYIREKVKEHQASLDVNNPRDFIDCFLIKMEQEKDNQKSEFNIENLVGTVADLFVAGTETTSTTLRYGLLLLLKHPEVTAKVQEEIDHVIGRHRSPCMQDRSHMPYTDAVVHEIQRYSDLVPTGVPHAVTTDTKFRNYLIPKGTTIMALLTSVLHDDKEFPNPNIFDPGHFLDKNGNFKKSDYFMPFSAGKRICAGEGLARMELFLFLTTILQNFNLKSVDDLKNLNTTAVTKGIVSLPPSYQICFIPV
As to the kind of experiment: Ki determination in pooled human liver microsomes, amodiaquine N-deethylase (Example 5). The class given is in vitro ADME. Here is the method:
as §1

pKi: −log10 of the molar value.

Data on one compound can be found in patent US20220193076A1, “METHODS OF TREATING BREAST CANCER WITH TUCATINIB” (Seagen Inc., priority 2019, published 2022).

One may read the pKi as the negative decadic logarithm of the Ki, by convention in mol/L. A higher pKi goes with a small Ki. `Cc1cc(Nc2ncnc3ccc(NC4=NC(C)(C)CO4)cc23)ccc1Oc1ccn2ncnc2c1` [tucatinib]: the “Inhibition mechanism, UGT1A1” value at UGT1A1 is given as “competitive inhibition”. Moreover, the results for the pKi on UGT1A1 (marker substrate β-estradiol) and at CYP2C8 (marker substrate amodiaquine) were 5.74 and 6.77, respectively. Moreover, the “Inhibition mechanism, CYP2C8” value at CYP2C8 is recorded as “competitive inhibition”.
